# Values of other authors, collected in patent publication US6479045B2, “Vaginal pH buffering for preventing miscarriage and premature labor, by treating or preventing bacterial vaginosis” (Columbia Laboratories, Inc., priority 1999, dated 2002).
# Test system: Bacterial Vaginosis
# Details: within one month
smiles,measurement,value
Cc1ncc([N+](=O)[O-])n1CCO [metronidazole],cure rate,approximately 70%
